The test system of assay [1] is NF-κB. The assay is described as follows: 293-cell pNF-κB-luc reporter assay, TNF-α induced. Conditions: HEK293 cells, NF-κB driven luciferase expression, read-out: 293/NFkB-luc EC50. It counts as cell-based. The protocol: (§1) Inhibition of NF-κB in cells by the compound of Example 1. Two reporter cell assays were used to determine the ability of the compound of Example 1 to inhibit NE-KB driven transcription. The first assay was a 293-cell based assay with a stably integrated pNF-κB-luc reporter plasmid containing 3 NF-κB promoter elements. The second assay was a 293-cell based assay with a stably integrated pTRH1-NF-κB-dscGFP reporter containing 4 NF-κB promoter elements. Cells were treated with 0, 0.2, 1, 10, 20 and 40 μM of the compound of Example 1 for 2 hours then were induced with 20 ng/ml TNF-α for 18 hours. Following the induction, luminescence or fluorescence was quantified using a Beckman-Coulter 2300 plate reader. […] These values represent the median value generated from three independent experiments±the standard error. As a control, 0.5% DMSO treated and untreated cells were compared to verify that the Example 1 carrier had no effect on the expression of luciferase or in the readout of the assay. There was a slight decrease in the output from the assay in the DMSO treated population although it was not statistically significant. As a result of the controls, the decrease in activity in the drug treated samples was compared to the DMSO control sample.
Background: In a reporter assay the amount or activity of a reporter protein is the signal.

Assay [2] relates to NF-κB. Put plainly: 293-cell pTRH1-NF-κB-dscGFP reporter assay, TNF-α induced. Conditions: Homo sapiens, HEK293, HEK293 cells, NF-κB driven GFP expression; read-out: NF-kB/293/GFP EC50. It counts as cell-based. The protocol:
as §1

For assay [3], the system named is IL-6 release from RAW264.7 cells. Put plainly: IL-6 release from LPS stimulated RAW264.7 cells. It counts as cell-based, mouse. The method, then:
Specifically, A and B show the effects of the compound of Example 1 on soluble PGE2 and Il-6 secretion from RAW264.7 cells stimulated by 1 μg/mL of LPS. The cells were treated with the indicated concentrations of the compound of Example 1 for 2 hours, and then LPS was added and incubation continued for 4 hours. […]

Assay [4] concerns the target T1, p50 (Homo sapiens, UniProt P19838).
T1 sequence (P19838 1-433 limits assumed): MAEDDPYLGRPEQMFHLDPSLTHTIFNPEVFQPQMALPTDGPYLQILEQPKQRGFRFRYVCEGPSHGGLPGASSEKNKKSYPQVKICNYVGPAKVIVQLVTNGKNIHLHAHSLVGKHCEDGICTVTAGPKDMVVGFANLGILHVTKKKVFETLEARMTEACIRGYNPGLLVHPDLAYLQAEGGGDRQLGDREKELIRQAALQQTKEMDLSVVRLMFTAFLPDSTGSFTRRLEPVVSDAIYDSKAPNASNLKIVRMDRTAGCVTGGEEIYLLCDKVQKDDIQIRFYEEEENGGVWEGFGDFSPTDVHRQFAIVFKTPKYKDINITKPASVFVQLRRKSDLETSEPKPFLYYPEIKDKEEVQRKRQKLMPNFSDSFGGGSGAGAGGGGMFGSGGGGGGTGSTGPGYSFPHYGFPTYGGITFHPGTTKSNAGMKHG
The assay is described as follows: TransAM NF-κB Family DNA Binding ELISA, p50. Conditions: for IC50: p50 binding IC50 (uM), cells without % sign. A general note: An ELISA detects its analyte on a solid surface through an enzyme-linked reagent.
Procedure: (§2) Treated samples were then transferred to 30 μL Complete Binding Buffer (with DTT) in microplate wells pre-coated with the NF-κB consensus oligonucleotide. […] The plate was incubated for 1 hour at room temperature with gentle shaking and then washed 3 times with 200 μL 1× Wash Buffer. NF-κB p65, p50, p52, RelB, or c-Rel subunits bound to the plate were detected with 100 μL of the primary antibody (diluted 1:1000 in 1× Antibody Buffer) specific for that subunit. The plate was incubated for 1 hour at room temperature and then washed 3 times with 200 μL 1× Wash Buffer. Next, 100 μL of a HRP conjugated goat anti-rabbit antibody (diluted 1:1,000 in 1× Antibody Buffer) was added to each well. The plate was incubated for 1 hour at room temperature and then washed 4 times with 200 μL 1× Wash Buffer. 100 μL of room temperature Developing Solution was added to each well. The reaction was allowed to develop for 2-10 minutes until a medium dark blue color developed (depending on the subunit activity in the lot of extract or lot of recombinant protein used) and then the reaction was stopped with 100 μL Stop Solution yielding a yellow color. Absorbance was recorded using a Becton-Dickinson DTX 880 Multimode Detector at 450 nm with a reference wavelength subtracted at 620 nm.

Assay [5] deals with T2, p52 (Homo sapiens, UniProt Q00653).
T2 sequence (Q00653 1-454 limits assumed): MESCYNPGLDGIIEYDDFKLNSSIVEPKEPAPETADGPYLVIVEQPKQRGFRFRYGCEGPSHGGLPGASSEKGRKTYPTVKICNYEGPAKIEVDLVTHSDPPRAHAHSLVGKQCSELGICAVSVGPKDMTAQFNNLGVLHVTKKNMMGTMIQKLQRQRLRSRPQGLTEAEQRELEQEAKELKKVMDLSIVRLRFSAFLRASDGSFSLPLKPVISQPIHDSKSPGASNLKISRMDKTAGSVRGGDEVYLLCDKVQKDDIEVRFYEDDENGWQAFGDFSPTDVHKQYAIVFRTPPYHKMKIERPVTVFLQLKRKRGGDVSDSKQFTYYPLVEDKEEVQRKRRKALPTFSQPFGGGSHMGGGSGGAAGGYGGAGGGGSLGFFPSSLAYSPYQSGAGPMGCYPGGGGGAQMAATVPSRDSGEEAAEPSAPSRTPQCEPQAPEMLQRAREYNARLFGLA
Put plainly: TransAM NF-κB Family DNA Binding ELISA, p52. The settings on record: for IC50: p52 binding IC50 (uM), cells without % sign.

The target of assay [6] is T3, RelB (Homo sapiens, UniProt Q01201).
T3 sequence (Q01201 1-579): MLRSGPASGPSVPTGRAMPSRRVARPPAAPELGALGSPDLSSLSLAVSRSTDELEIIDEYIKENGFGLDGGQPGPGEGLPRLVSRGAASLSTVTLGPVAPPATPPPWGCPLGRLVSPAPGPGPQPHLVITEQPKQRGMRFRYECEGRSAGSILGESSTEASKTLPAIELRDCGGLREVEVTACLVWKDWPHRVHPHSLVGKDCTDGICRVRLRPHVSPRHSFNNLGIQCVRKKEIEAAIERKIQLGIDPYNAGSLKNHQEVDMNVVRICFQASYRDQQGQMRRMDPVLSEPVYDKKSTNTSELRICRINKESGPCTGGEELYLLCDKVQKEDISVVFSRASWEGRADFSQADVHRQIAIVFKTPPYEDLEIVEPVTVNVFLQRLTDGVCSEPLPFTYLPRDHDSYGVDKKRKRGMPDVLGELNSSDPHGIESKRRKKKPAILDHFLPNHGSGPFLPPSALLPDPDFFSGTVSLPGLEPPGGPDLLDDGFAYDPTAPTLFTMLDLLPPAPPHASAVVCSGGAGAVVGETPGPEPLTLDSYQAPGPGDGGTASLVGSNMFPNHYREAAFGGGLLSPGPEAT
T3 sequence (Q00653 1-454 partner limits assumed): T2 sequence (Q00653 1-454 limits assumed)
Put plainly: TransAM NF-κB Family DNA Binding ELISA, RelB. The settings on record: for inhibition at 5 µM: read-out: RelB binding % inhibit. at 5 uM, at 5 uM.
Procedure: as §2

Assay [7] deals with T4, c-Rel (Homo sapiens, UniProt Q04864).
T4 sequence (Q04864 2-619 limits assumed): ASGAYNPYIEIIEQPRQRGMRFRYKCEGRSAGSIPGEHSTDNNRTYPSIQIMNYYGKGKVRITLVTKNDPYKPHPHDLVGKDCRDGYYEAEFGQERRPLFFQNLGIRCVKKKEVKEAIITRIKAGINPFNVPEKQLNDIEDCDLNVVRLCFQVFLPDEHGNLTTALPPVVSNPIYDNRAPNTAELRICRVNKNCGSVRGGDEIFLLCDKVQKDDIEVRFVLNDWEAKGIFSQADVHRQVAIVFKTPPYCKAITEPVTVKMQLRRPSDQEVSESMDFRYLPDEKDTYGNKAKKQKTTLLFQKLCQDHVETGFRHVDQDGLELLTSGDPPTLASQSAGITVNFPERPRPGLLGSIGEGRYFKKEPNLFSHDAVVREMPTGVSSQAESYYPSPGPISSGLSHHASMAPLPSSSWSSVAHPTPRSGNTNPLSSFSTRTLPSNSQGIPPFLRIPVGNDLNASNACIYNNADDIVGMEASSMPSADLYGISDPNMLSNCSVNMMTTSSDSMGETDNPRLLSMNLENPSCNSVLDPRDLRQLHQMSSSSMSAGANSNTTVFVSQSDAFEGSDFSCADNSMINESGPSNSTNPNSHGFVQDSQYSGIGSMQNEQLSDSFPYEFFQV
Put plainly: TransAM NF-κB Family DNA Binding ELISA, c-Rel. The settings on record: for inhibition at 5 µM: read-out: c-Rel binding % inhibit. at 5 uM, at 5 uM.
Procedure: as §2

Assay [8] deals with p65 (RelA) (Homo sapiens, UniProt Q04206). Put plainly: TransAM NF-κB Family DNA Binding ELISA, p65. The settings on record: p65 binding IC50 (uM), binding to NF-κB sites.
Sequence of p65 (RelA) (Q04206 whole entry): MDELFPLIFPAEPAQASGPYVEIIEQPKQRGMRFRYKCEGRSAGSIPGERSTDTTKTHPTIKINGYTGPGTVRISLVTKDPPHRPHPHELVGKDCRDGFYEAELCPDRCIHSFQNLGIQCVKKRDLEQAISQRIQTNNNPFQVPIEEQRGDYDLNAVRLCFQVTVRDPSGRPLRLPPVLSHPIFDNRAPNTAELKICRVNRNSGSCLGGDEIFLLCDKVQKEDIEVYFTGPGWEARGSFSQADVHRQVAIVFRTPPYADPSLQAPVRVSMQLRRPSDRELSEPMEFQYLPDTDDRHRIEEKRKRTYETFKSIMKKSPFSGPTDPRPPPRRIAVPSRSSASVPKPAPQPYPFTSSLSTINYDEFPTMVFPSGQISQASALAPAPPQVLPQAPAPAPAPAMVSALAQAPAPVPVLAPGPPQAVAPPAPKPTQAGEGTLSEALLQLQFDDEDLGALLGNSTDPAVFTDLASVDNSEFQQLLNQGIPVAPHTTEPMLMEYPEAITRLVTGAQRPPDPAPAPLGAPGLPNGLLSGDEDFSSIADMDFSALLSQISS
Setting [9] is: Mus musculus, RAW264.7, RAW 264.7 cells.
[10] abbreviates: RAW 264.7 cells, trifluoroacetate.

Structures can show the parent of a compound that is named as a salt.

One may read the IC50 as the point on the concentration scale where inhibition reaches its midpoint. A higher IC50 goes with a need for much substance. Take `O=C(NC1=CC(=O)C2OC2C1O)c1ncccc1O` (racemic) [Example 3, (±)-3-hydroxy-N-(2-hydroxy-5-oxo-7-oxabicyclo[4.1.0]hept-3-en-3-yl)picolinamide]: the figures for the EC50 in assay [1], in assay [2] and in assay [3] (RAW 264.7 cells) were 15 µM, 3.4 µM and 1.4 µM, respectively. The IC50 in assay [4] is above 636 µM; in assay [5], 301 µM. The “RelB binding % inhibit. at 5 uM” value in assay [6] is given as 0%. Also, the “c-Rel binding % inhibit. at 5 uM” value in assay [7] is 15%.
On to `O=C(NC1=CC(=O)C2OC2C1O)c1cnccc1O` (racemic) [Example 4, (±)-4-hydroxy-N-(2-hydroxy-5-oxo-7-oxa-bicyclo[4.1.0]hept-3-en-3-yl)-nicotinamide], for which the EC50 is above 51 µM in assay [1], 40 µM in assay [2] and above 51 µM in assay [3] (setting [9]). Further, the IC50 came out at 5 µM in assay [8], 118 µM in assay [4] and 365 µM in assay [5]. For the same molecule, the inhibition at 5 µM in assay [6] came to 21%; in assay [7] it was 23%.
With `O=C(NC1=CC(=O)C2OC2C1O)c1cnc(N2CCCCC2)nc1O` (racemic) [Example 11, (±)-4-hydroxy-2-piperidin-1-yl-pyrimidine-5-carboxylic acid (2-hydroxy-5-oxo-7-oxa-bicyclo[4.1.0]hept-3-en-3-yl)-amide], the EC50 in assay [1] is 15 µM; in assay [2], 5.8 µM; in assay [3] (setting [9]), 7.7 µM. The molecule also came in with a half-maximal inhibitory concentration (IC50) in assay [8] of 4.6 µM. Further, the inhibition at 5 µM in assay [4] (read-out: p50 binding % inhibit. at 5 uM) turned out to be 4%; in assay [5] (read-out: p52 binding % inhibit. at 5 uM, at 5 uM) it was 9%; in assay [6] it was 18%; in assay [7], 40%.
Turning to `CS(=O)(=O)O.O=C(NC1=CC(=O)C2OC2C1O)c1ncccc1O` (racemic) [Example 12, (±)-3-hydroxy-N-(2-hydroxy-5-oxo-7-oxabicyclo[4.1.0]hept-3-en-3-yl)picolinamide, mesylate], the EC50 in assay [1] (mesylate) stood at 22 µM; in assay [3] (RAW 264.7 cells, mesylate), 2.5 µM. Further, in assay [5], the “p52 binding % inhibit. at 5 uM” value turned out to be 14%. The “RelB binding % inhibit. at 5 uM” value in assay [6] came out at 6%. The “c-Rel binding % inhibit. at 5 uM” value in assay [7] was determined as 7%.
On to `O=C(NC1=CC(=O)C2OC2C1O)c1ncccc1O.O=C(O)C(F)(F)F` (racemic) [Example 13, (±)-3-hydroxy-N-(2-hydroxy-5-oxo-7-oxabicyclo[4.1.0]hept-3-en-3-yl)picolinamide trifluoroacetate], for which the EC50 in assay [1] (trifluoroacetate) is 9.2 µM; in assay [3] (setting [10]), 1.4 µM. Also, in assay [5], the “p52 binding % inhibit. at 5 uM” value came out at 0%. Also, the “RelB binding % inhibit. at 5 uM” value in assay [6] amounted to 10%. In addition, the “c-Rel binding % inhibit. at 5 uM” value in assay [7] was 15%.
For the molecule `Cc1ccc(S(=O)(=O)O)cc1.O=C(NC1=CC(=O)C2OC2C1O)c1ncccc1O` (racemic) [Example 14, (±)-3-hydroxy-N-(2-hydroxy-5-oxo-7-oxabicyclo[4.1.0]hept-3-en-3-yl)picolinamide tosylate], the EC50 in assay [1] (tosylate) was 23 µM; in assay [3] (RAW 264.7 cells, tosylate), 3.3 µM. The “p52 binding % inhibit. at 5 uM” value in assay [5] is on record as 6%. The “RelB binding % inhibit. at 5 uM” value in assay [6] came to 9%. Further, the “c-Rel binding % inhibit. at 5 uM” value in assay [7] came out at 1%.
In the case of `COc1ncccc1C(=O)NC1=CC(=O)C2OC2C1O` (racemic) [Example 21, (±)-N-(2-hydroxy-5-oxo-7-oxa-bicyclo[4.1.0]hept-3-en-3-yl)-2-methoxy-nicotinamide trifluoroacetate], the EC50 in assay [1] (trifluoroacetate) stood at 5.8 µM; in assay [3] (setting [10]) it was 0.38 µM. Besides, the IC50 in assay [8] is 0.55 µM; in assay [4], 22 µM; in assay [5], 22 µM; in assay [6] (RelB binding IC50 (uM), cells without % sign), 1.5 µM; in assay [7] (c-Rel binding IC50 (uM), cells without % sign), 1.1 µM.
Turning to `COc1nc2ccccc2cc1C(=O)NC1=CC(=O)C2OC2C1=O` (racemic) [Example 35, (±)-N-(2,5-dioxo-7-oxabicyclo[4.1.0]hept-3-en-3-yl)-2-methoxyquinoline-3-carboxamide], the EC50 came to 3.1 µM in assay [1], 5.3 µM in assay [2] and 0.44 µM in assay [3] (setting [9]). Further, the IC50 came to 50 µM in assay [8], 148 µM in assay [4] and 81 µM in assay [5].

For the origin of these results see patent publication US8629164B2, “Inhibitors of NF-κB” (Profectus Biosciences, Inc., priority 2009, dated 2014).
